According to publication PMC4648050, “Discovery of Inhibitors of Trypanosoma brucei by Phenotypic Screening of a Focused Protein Kinase Library” (Chemmedchem, 2015):

Key:
EPH-B3 = target: T1, EPH-B3 (Homo sapiens, UniProt P54753); assay: Kinase panel: EPH-B3; type: biochemical, human/mammalian; conditions: compound at 10 μM, read-out: % of activity respect of the control
T1 sequence (P54753 34-998): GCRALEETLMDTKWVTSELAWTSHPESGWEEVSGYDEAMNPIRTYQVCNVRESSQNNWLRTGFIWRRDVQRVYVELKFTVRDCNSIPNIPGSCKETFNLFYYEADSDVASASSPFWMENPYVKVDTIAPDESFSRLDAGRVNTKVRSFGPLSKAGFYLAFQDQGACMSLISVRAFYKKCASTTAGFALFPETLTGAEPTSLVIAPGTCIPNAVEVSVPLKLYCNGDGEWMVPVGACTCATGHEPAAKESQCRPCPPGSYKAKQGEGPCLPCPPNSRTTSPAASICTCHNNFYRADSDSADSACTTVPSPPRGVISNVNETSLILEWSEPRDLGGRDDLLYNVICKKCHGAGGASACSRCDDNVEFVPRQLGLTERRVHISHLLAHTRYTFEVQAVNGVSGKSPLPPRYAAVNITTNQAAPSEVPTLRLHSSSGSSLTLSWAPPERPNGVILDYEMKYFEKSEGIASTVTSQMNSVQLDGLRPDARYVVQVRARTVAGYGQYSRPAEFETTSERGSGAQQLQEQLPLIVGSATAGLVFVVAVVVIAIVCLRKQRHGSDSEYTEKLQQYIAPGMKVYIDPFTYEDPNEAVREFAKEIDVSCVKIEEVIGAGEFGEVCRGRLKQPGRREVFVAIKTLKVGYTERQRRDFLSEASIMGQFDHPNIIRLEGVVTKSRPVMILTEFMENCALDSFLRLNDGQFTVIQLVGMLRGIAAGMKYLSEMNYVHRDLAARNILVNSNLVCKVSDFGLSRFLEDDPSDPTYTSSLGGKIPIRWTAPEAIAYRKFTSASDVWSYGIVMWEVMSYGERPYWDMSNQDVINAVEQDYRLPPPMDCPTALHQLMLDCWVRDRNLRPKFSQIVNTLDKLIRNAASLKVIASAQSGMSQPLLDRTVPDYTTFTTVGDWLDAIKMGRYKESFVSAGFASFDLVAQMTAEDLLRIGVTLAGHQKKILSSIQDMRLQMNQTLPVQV
Experimental: (§1) The DDU kinase-focused compound set contains lead-like scaffolds that are designed to target protein kinases; they have kinase hinge binding motifs. Four of the 1H-imidazopyrazinones were screened against a human/mammalian kinase panel at the University of Dundee (http://www.kinase-screen.mrc.ac.uk) at a concentration of 10 μM. At the time of testing the panel contained 79 mammalian kinases selected to provide a broad coverage of the mammalian kinome (∼500 kinases in the human genome).[3] None of the compounds were active against any of the kinases at 10 μM.

MST2 = target: T2, MST2 (Homo sapiens, UniProt Q13188); assay: Kinase panel: MST2; type: biochemical, human/mammalian; conditions: compound at 10 μM, read-out: % of activity respect of the control
T2 sequence (Q13188 1-491): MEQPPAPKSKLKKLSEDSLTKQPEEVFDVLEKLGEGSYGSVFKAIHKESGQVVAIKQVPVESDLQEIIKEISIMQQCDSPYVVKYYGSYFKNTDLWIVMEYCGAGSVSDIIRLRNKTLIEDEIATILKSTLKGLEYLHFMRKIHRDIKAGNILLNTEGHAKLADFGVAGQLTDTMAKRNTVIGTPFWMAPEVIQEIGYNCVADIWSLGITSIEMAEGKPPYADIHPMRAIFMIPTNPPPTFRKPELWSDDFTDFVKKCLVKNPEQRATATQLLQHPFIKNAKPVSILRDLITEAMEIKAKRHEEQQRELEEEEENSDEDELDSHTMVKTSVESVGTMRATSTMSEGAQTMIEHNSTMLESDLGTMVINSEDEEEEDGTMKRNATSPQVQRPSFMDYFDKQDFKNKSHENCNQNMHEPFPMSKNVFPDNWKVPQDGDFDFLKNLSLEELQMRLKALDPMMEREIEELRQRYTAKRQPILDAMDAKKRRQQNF
Experimental: as §1

CHK2 = CHK2 (Homo sapiens, UniProt O96017); assay: Kinase panel: CHK2; type: biochemical, human/mammalian; conditions: compound at 10 μM, read-out: % of activity respect of the control
Chain of CHK2 (O96017 whole entry): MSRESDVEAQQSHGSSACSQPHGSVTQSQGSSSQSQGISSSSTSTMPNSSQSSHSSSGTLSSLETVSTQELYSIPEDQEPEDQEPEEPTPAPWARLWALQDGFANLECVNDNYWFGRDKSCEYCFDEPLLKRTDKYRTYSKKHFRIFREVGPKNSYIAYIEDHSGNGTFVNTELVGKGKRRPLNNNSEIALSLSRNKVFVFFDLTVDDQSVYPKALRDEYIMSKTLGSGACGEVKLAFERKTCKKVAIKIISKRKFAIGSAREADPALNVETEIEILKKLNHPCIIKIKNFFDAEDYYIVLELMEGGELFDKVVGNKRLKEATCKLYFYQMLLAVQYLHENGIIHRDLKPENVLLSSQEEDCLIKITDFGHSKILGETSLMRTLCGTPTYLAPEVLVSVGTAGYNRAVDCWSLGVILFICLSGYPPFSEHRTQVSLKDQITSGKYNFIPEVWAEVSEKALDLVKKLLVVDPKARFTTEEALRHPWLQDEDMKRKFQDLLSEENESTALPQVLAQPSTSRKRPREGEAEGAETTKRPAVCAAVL
Experimental: as §1

JNK1 = JNK1 (Homo sapiens, UniProt P45983); assay: Kinase panel: JNK1; type: biochemical, human/mammalian; conditions: compound at 10 μM, read-out: % of activity respect of the control
Chain of JNK1 (P45983 whole entry): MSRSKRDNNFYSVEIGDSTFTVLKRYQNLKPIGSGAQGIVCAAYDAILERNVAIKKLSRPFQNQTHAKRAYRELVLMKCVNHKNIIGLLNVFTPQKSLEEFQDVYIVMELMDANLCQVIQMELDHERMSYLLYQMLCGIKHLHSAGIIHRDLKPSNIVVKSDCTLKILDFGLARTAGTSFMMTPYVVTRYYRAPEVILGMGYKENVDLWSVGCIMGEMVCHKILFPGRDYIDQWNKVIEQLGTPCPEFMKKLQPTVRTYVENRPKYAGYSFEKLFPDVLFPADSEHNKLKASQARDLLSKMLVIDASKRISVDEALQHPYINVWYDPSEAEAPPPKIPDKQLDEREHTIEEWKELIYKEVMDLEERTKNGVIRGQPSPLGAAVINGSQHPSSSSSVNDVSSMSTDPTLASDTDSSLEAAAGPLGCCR
Experimental: as §1

JNK2 = JNK2 (Homo sapiens, UniProt P45984); assay: Kinase panel: JNK2; type: biochemical, human/mammalian; conditions: compound at 10 μM, read-out: % of activity respect of the control
Chain of JNK2 (P45984 whole entry): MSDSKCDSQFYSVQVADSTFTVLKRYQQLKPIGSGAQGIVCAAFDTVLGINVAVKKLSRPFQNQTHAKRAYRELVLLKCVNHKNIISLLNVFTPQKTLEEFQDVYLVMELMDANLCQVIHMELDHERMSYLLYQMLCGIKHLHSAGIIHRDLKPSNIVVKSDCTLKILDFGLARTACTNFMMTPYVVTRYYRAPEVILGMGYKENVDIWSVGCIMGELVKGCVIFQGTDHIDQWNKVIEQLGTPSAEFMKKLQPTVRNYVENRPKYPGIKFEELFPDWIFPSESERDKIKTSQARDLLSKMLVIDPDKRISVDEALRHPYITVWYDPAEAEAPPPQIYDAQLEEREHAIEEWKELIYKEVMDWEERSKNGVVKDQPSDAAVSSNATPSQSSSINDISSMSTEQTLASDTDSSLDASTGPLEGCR
Experimental: as §1

VEG-FR = VEG-FR (Homo sapiens, UniProt P17948); assay: Kinase panel: VEG-FR; type: biochemical, human/mammalian; conditions: compound at 10 μM, read-out: % of activity respect of the control
Chain of VEG-FR (P17948 27-1338): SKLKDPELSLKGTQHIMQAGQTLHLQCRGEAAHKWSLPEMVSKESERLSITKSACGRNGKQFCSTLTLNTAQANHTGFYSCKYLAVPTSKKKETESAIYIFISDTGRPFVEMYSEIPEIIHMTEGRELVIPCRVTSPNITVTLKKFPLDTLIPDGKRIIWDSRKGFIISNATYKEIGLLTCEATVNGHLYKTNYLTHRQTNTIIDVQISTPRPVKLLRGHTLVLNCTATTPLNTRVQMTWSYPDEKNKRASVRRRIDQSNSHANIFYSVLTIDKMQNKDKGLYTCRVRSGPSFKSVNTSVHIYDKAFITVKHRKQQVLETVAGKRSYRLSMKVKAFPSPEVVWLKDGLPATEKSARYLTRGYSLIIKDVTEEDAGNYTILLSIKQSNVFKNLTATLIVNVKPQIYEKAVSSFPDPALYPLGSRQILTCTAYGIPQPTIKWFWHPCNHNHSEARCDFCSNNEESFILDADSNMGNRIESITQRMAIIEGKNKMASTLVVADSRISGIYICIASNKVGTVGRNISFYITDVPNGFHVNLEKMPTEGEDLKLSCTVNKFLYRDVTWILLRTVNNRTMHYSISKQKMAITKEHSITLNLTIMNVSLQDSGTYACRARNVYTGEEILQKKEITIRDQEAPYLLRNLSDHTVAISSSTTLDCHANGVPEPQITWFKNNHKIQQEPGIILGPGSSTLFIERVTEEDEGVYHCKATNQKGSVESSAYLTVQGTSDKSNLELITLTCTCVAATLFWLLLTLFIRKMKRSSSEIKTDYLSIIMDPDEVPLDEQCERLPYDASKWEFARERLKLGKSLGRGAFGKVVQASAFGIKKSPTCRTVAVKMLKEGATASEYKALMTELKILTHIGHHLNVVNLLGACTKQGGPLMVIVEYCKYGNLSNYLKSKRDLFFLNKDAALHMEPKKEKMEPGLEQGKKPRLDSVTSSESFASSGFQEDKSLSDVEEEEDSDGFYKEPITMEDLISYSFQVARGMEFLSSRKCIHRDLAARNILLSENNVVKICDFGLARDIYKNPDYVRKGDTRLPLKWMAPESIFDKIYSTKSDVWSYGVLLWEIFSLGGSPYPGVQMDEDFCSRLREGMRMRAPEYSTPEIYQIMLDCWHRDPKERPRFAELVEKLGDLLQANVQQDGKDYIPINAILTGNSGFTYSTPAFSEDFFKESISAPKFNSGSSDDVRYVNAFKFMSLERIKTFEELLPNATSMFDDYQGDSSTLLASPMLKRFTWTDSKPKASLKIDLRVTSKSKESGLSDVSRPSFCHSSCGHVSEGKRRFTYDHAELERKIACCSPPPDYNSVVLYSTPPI
Experimental: as §1

Aurora B = Aurora B (Homo sapiens, UniProt Q96GD4); assay: Kinase panel: Aurora B; type: biochemical, human/mammalian; conditions: compound at 10 μM, read-out: % of activity respect of the control
Chain of Aurora B (Q96GD4 whole entry): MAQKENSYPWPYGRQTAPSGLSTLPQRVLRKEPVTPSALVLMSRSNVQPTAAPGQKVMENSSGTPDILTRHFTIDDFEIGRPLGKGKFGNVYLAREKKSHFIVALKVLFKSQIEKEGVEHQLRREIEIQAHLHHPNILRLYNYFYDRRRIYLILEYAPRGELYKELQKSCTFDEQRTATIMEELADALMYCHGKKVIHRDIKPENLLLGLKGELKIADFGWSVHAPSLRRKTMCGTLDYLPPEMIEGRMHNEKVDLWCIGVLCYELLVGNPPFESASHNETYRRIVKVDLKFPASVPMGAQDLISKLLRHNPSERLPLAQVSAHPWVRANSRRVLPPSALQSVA
Experimental: as §1

NEK6 = NEK6 (Homo sapiens, UniProt Q9HC98); assay: Kinase panel: NEK6; type: biochemical, human/mammalian; conditions: compound at 10 μM, read-out: % of activity respect of the control
Chain of NEK6 (Q9HC98 whole entry): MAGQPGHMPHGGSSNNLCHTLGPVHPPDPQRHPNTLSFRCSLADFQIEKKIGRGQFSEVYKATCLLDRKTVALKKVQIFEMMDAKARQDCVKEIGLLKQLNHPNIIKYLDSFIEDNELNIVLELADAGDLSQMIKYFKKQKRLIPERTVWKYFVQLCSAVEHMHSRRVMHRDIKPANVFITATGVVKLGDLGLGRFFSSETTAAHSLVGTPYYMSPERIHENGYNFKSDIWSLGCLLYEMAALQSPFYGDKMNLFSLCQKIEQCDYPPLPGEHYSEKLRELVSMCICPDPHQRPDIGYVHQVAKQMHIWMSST
Experimental: as §1

[1] = Intrinsic clearance in mouse liver microsomes; type: in vitro ADME; conditions: mouse hepatic microsomes, 0.5 μM compound
Experimental: Intrinsic clearance experiments: Test compound (0.5 μM) was incubated with female CD1 mouse liver microsomes (Xenotech LLC; 0.5 mg mL^−1 50 mM potassium phosphate buffer, pH 7.4), and the reaction started with the addition of excess NADPH (8 mg mL^−1 50 mM potassium phosphate buffer, pH 7.4). Immediately, at t0, then at 3, 6, 9, 15, and 30 min an aliquot (50 μL) of the incubation mixture was removed and mixed with MeCN (100 μL) to stop the reaction. Internal standard was added to all samples, the samples were centrifuged to sediment precipitated protein, and the plates were then sealed prior to UPLC–MS/MS analysis using a Quattro Premier XE instrument (Waters Corp., USA). XLfit (IDBS, UK) was used to calculate the exponential decay and consequently the rate constant (k) from the ratio of peak area of test compound to internal standard at each time point. The rate of intrinsic clearance [CLint, mL min^−1 (g liver)^−1] of each test compound was then calculated with Equation (3): […]
in which V [mL (mg protein)^−1] is the incubation volume per mg protein added, and microsomal protein yield is taken as 52.5 mg protein per gram of liver. Verapamil (0.5 μM) was used as a positive control to confirm acceptable assay performance.

PRK2 = PRK2 (Homo sapiens, UniProt Q16513); assay: Kinase panel: PRK2; type: biochemical, human/mammalian; conditions: compound at 10 μM, read-out: % of activity respect of the control
Chain of PRK2 (Q16513 whole entry): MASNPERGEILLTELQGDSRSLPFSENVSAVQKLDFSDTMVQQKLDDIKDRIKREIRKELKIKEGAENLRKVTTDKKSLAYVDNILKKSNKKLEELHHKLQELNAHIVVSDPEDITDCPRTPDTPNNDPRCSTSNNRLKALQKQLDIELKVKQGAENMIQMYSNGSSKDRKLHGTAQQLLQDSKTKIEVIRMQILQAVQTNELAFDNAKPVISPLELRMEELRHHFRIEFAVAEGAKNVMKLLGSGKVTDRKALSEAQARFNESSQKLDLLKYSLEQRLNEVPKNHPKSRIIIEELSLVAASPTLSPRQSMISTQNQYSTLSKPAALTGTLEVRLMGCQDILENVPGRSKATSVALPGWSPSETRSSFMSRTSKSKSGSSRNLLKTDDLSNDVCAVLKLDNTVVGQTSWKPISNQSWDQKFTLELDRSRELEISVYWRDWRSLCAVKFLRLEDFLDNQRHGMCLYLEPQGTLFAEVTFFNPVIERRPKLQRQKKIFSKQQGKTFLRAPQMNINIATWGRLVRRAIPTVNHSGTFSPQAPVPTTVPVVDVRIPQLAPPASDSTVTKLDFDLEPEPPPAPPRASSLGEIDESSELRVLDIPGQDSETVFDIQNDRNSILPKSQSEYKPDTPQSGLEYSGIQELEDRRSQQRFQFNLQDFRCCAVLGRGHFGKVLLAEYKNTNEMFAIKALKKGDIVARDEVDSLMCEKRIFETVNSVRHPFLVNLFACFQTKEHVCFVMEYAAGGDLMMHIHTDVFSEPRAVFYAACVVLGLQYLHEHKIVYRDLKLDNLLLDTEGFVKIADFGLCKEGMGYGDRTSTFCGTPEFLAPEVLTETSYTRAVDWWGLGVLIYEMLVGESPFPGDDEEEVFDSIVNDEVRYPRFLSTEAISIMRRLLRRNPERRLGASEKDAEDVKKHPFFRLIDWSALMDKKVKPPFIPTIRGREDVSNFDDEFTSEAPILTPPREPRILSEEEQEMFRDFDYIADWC
Experimental: as §1

SMILES | remaining activity at 10 µM (EPH-B3) [%] | remaining activity at 10 µM (MST2) [%] | remaining activity at 10 µM (CHK2) [%] | remaining activity at 10 µM (JNK1) [%] | remaining activity at 10 µM (JNK2) [%] | remaining activity at 10 µM (VEG-FR) [%] | remaining activity at 10 µM (Aurora B) [%] | remaining activity at 10 µM (NEK6) [%] | CLint [1] [mL/min/g] | remaining activity at 10 µM (PRK2) [%]
CC(c1ccccc1)n1c(=O)[nH]c2ncc(-c3ccc(F)cc3)nc21 (stereo not drawn) [Compound 1] | 113 | 86 | 97 | 95 | 104 | 117 | 117 | 89 | < 0.5 | 111
O=c1[nH]c2ncc(-c3ccc(F)cc3)nc2n1CC1CC1 [Compound 10] | 92 | 92 | 97 | 100 | 97 | 98 | 93 | 86 | – | 99
O=c1[nH]c2ncc(-c3ccc(F)cc3)nc2n1C1CCCCC1 [Compound 12, 1-Cyclohexyl-6-(4-fluorophenyl)-1H-imidazo[4,5-b]pyrazin-2(3H)-one] | 110 | 94 | 96 | 95 | 93 | 107 | 85 | 94 | 0.7 | 112
C[C@H](c1ccccc1)n1c(=O)[nH]c2ncc(-c3ccccc3)nc21 [Compound 14, (R)-6-Phenyl-1-(1-phenylethyl)-1H-imidazo[4,5-b]pyrazin-2(3H)-one] | 102 | 78 | 93 | 97 | 96 | 73 | 99 | 80 | – | 97
O=c1[nH]c2ncc(-c3ccccc3CO)nc2n1C1CCCCC1 [Compound 28] | – | – | – | – | – | – | – | – | 2.4 | –
